# Test results reported in US20110280813A1, “NEURAMINIDASE INHIBITORS AND USES THEREOF” (priority 2008, published 2011).
# “Also recorded” adds a separate entry of the source. Like-named read-outs stand apart in the source and are kept apart here.
# How the values were obtained:
# [1] = target: T1, P. aeruginosa neuraminidase (NanPs) (Pseudomonas aeruginosa, UniProt G3XCV3); conditions: read-out: concentration for 50% inhibition of the P. aeruginosa neuraminidase; from reference A37; cited from earlier work
# T1 sequence (G3XCV3 entry or part of it): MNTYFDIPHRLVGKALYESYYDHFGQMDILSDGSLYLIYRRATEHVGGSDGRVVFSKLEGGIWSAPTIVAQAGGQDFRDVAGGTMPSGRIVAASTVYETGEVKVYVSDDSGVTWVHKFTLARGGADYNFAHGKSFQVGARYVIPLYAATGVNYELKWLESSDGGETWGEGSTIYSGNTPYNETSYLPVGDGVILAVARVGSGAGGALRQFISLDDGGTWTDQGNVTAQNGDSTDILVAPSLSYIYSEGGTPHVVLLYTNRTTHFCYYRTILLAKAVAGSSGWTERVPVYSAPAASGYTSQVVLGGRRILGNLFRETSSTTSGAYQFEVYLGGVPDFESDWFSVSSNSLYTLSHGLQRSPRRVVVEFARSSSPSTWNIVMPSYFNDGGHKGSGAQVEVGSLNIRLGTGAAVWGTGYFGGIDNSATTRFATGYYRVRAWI
# [2] = target: T2, S. pneumoniae neuraminidase (NanA) (Streptococcus pneumoniae, UniProt P62575); assay: Neuraminidase assay with fluorogenic substrate MNN, NanA; type: biochemical
# T2 construct: residues 116-1035 of S. pneumoniae D39 sialidase A precursor (NanA); made in house; host or cells: E. coli BL21(DE3), pET28a
# T2 sequence (P62575 116-1035): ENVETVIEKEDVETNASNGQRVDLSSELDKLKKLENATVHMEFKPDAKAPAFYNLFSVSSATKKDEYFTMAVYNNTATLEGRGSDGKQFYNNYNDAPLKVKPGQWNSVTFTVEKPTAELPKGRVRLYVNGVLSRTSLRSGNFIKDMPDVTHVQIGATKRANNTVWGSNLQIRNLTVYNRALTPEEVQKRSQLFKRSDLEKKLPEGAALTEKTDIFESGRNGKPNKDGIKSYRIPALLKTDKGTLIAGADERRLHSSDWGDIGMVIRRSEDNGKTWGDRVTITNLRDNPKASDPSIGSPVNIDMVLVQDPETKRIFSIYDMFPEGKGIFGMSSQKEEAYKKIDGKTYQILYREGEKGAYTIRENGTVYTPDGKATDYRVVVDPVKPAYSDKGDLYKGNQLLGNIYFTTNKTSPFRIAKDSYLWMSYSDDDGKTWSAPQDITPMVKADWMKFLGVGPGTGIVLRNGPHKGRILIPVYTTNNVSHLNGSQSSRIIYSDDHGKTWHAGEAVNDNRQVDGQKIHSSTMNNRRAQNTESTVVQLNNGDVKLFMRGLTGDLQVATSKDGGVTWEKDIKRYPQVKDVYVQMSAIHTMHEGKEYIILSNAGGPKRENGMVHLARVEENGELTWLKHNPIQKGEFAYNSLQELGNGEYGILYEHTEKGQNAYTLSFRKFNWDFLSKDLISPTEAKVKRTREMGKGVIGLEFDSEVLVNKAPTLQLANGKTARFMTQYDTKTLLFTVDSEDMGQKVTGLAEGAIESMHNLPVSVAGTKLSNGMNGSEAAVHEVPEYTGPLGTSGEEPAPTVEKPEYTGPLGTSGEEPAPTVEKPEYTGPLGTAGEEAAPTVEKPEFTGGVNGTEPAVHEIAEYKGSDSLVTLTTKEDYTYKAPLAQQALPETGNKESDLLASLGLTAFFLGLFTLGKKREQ
# Experimental: (§1) Neuraminidase assay. Neuraminidase activity of NanA was detected using the fluorogenic substrate 2′-(4-methylumbelliferyl)-α-D-N-acetylneuraminic acid (MNN, Sigma). Reactions contained 1.5 mM MNN, 1 nM of NanA in 2.5 mM sodium phosphate buffer (pH 5). Reactions were allowed to incubate for 2 h at 37° C. before fluorescence intensity was measured at excitation and emission wavelengths of 360 nm and 465 nm in a Tecan microplate reader (Männedorf, Switzerland). NanPs was assayed as above with 1 mM of enzyme in 7.5 mM sodium chloride and 4 mM calcium chloride. Compounds were screened at a concentration of 100 μM before dose-dependence was established. Compounds were obtained from a variety of sources (Otava, Kyiv, Ukraine; Interbioscreen, Moscow, Russia; Chembridge San Diego, USA; Maybridge, Cornwell, UK; Sigma, St Louis, USA; Princeton, Princeton, USA; Lifechem, Burlington, Canada; Enamine, Kiev, Ukraine). Neuraminidase assays with oseltamivir were performed using the hydrolyzed version of the compound. Divalent cations were supplied in the form of calcium, magnesium, ferric and copper chloride. All neuraminidase assays were performed at least in triplicate.
# as §1, with “assay. NanA was purified as previously described (B19).” for “assay.”, “Switzerland).” for “Switzerland). NanPs was assayed as above with 1 mM of enzyme in 7.5 mM sodium chloride and 4 mM calcium chloride. Compounds were screened at a concentration of 100 μM before dose-dependence was established.”, “Kiev,” for “Kyiv,”, “compound. Briefly, a mixture of oseltamivir (300 mg) in methanol (10 ml) was added to 5N NaOH (3 ml). The mixture was stirred overnight and evaporated under reduced pressure. The residue was dissolved in 10 ml H2O and the washed with 5 ml of ethyl acetate. The aqueous solution was acidified with 5N HCl to pH=2-3. Evaporation of water under reduced pressure gave the hydrolyzed product. […]” for “compound.”
# [3] = test system: S. pneumoniae wild-type D39 biofilm; assay: Biofilm formation after epithelial cell interaction (crystal violet microtitre assay); type: cell-based, Streptococcus pneumoniae
# Experimental: (§2) Biofilm assay. Bacterial strains were grown to mid-log phase before being diluted 1:100 in TS broth and catalase. 100 μl of diluted culture was added in triplicate to 96-well flat bottom tissue culture treated plates (Falcon) and left for 18-24 h at 37° C. with 5% CO2. Plates were read at 600 nm to determine levels of growth before being washed in water. Adherent biofilm-forming cells were then stained with 125 μL of 1% crystal violet for 15 min before two further washes in water and allowed to dry. Bound crystal violet was then suspended in 200 μL of ethanol, shaken for 15 min and read at 540 nm.
# (§3) Biofilm formation after epithelial cell interaction. Bacterial strains were grown and inoculated onto 1HAEo^− cells as per adherence assay. After the initial PBS washes fresh MEM media was applied before a further 1 h incubation. This removal and addition of fresh media was repeated a further four times before detachment of adherent bacteria using TrypLE Express (Gibco). The detached bacteria were then diluted 1:100 in TS broth and catalase and assayed as per the biofilm assay. Samples were repeated four times, each time in sextuplicate using epithelial cells without bacteria as a negative control.
# as §3, with “control. […] Fluorescence microscopy was performed using a Zeiss Observer Z1 inverted fluorescence microscope with ApoTome (Zeiss) for optical sectioning and AxioVision software (v 4.6.2.0, Zeiss). […]” for “control.”
# [4] = target: T1, P. aeruginosa neuraminidase (NanPs); assay: Neuraminidase assay with fluorogenic substrate MNN, NanPs; type: biochemical
# Experimental: as §1
# [5] = test system: S. pneumoniae planktonic cells; assay: Growth of planktonic cells (600 nm reading in biofilm assay); type: cell-based, Streptococcus pneumoniae
# Experimental: as §2
# as §3, with “control. […] Fluorescence microscopy was performed using a Zeiss Observer Z1 inverted fluorescence microscope with ApoTome (Zeiss) for optical sectioning and AxioVision software (v 4.6.2.0, Zeiss). […]” for “control.”
compound,measurement,setting,value
"CC(=O)N[C@H]1[C@H]([C@H](O)[C@H](O)CO)OC(C(=O)O)=C[C@@H]1O [DANA, 2,3-dehydro-2-deoxy-N-acetylneuraminic acid]",IC50,[1],~10 mM
"CC(=O)N[C@@H]1[C@@H](O)C[C@](Oc2ccc3c(C)cc(=O)oc3c2)(C(=O)O)O[C@H]1C(O)[C@H](O)CO (stereo partly drawn) [MNN, 2′-(4-methylumbelliferyl)-α-D-N-acetylneuraminic acid, reference compound]",Km,[2],~1.4 mM
"CC(=O)N[C@H]1[C@H]([C@H](O)[C@H](O)CO)OC(O)(C(=O)O)C[C@@H]1O (stereo partly drawn) [NANA, N-acetylneuraminic acid, reference compound]",IC50,[1],~10 mM
same,biofilm formation of the wild-type (D39) strain,[3]; 0.2% w/v NANA,decreased biofilm formation; also recorded: reduced biofilm formation
same,IC50,[2],600 µM
"CCOC(=O)C1=C[C@@H](OC(CC)CC)[C@H](NC(C)=O)[C@@H](N)C1 [Oseltamivir, oseltamivir, reference compound]",IC50,"[2]; IC50 against NanA, hydrolyzed version of oseltamivir",2000 µM
same,IC50,[4],~600 µM
COc1ccc([C@H]2[C@H](C(=O)c3ccc(Cl)cc3)C(=O)C(=O)N2c2cccc(C(=O)O)c2)cc1 [XX1],growth of planktonic cells,[5],did not affect growth
same,biofilm formation,"[3]; 100 μM, inhibitor present during epithelial cell exposure and in microtitre trays",significant reduction in biofilm formation
same,levels of biofilm formation,"[3]; 400 μM, inhibitor present during epithelial cell exposure and in microtitre trays",comparative to the nanA strain
same,"inhibition of NanA, times more effective than DANA",[2]; Example 1,greater than 20 times
same,"inhibition of NanA, times more effective than NANA",[2]; Example 1,> 80 times
same,"inhibition of NanA, times more effective than oseltamivir",[2]; Example 1,> 200 times
same,"inhibition of NanA, times more effective than DANA",[2]; Example 3,greater than 7 times
same,"inhibition of NanA, times more effective than NANA",[2]; Example 3,> 20 times
same,"inhibition of NanA, times more effective than oseltamivir",[2]; Example 3,> 70 times
same,IC50,"[2]; IC50 against NanA, Example 3, dose response fitted with logarithmic-based trend line",28 µM
same,IC50,"[2]; IC50 for the S. pneumoniae neuraminidase, Example 1, dose response fitted with power-based trend line",8.5 µM
same,IC50,[4],29 µM
[Ca] [calcium],increase in NanA activity,[2]; 1 mM calcium,70%
[Mg] [magnesium],increase in NanA activity,[2]; presence of magnesium ions,50%
